{"source": "patent US20250082577A1", "about": "“POLYMER BEADLET COMPOSITIONS AND METHODS OF USE THEREOF FOR IMPROVED STABILITY, BIOAVAILABILITY & SUSTAINED RELEASE” (SpecNova LLC, priority 2023, published 2025)", "key": {"[1]": {"settings": "cited from earlier work"}, "[2]": {"experiment": "whole-body creatine retention from 24-hour urine, double-blind randomized crossover study", "settings": "2 x 5 g oral, 8 hours apart (total 10 grams), fifteen females and males", "method": "Participants adhered to a plant-based protein diet prior to each testing session. […] Participants were then randomly assigned to ingest capsules containing 5 g of CrM or 5 g of CrM prepared in beadlets (CrM-Bead). […] Participants repeated the experiment after a seven-day washout while ingesting the crossover supplement, i.e. the CrM-Bead group was given CrM and the CrM group was given Crm-Beads. Whole-body creatine retention was determined by subtracting CrM intake from the difference between post-supplementation urine creatine content and expressed in percent retention."}}, "data": [{"smiles": "CN(CC(=O)O)C(=N)N.O", "note": "[CrM, creatine monohydrate]", "values": [{"measurement": "time to return to baseline in the blood after oral ingestion", "setting": "[1]", "result": "4 to 5", "unit": "h"}, {"measurement": "24-hour whole-body creatine retention", "setting": "[2]", "result": "81.8%±11.4%"}]}]}
